{
  "source": "paper PMC4426599",
  "about": "“Structure and mechanism of an antibiotics-synthesizing 3-hydroxykynurenine C-methyltransferase” (Scientific Reports, 2015)",
  "key": {"[1]": {"molecular_target": "T1, Ss-SibL (SibL) (Streptosporangium sibiricum, UniProt C0LTM6)", "T1 construct": "recombinant His6-tagged (pET-21b), E. coli BL21(DE3), Ni-NTA and gel filtration; homodimer; tag removal not described", "assay": "X-ray crystal structure of ternary complex with SAH, […] A", "format": "binding", "details": "SAH bound; D-/L-3-HK used in crystallization; pH 7.7; substrate site"}, "[2]": {"molecular_target": "T1, Ss-SibL (SibL)", "assay": "X-ray crystal structure of binary complex, […] A", "format": "binding", "details": "crystals obtained by using SAM, modelled as SAH; pH 7.7; SAM site; also bound in ternary complex 4U1Q"}, "[3]": {"molecular_target": "the molecule itself", "assay": "crystal structure; crystals of apo Ss-SibL, of the binary complex with SAH and of the ternary complex with SAH and 3-HK; sitting-drop vapour diffusion; homodimer seen in the crystal"}},
  "data": [
    {"molecule": "Nc1c(O)cccc1C(=O)C[C@H](N)C(=O)O", "note": "[L-3-HK]", "values": [
      {"measurement": "X-ray crystal structure of ternary complex with SAH, 2.1 A", "setting": "[1]", "value": "the electron densities clearly indicate that the bound substrate is L-3-HK"}
    ]},
    {"molecule": "Nc1ncnc2c1ncn2[C@@H]1O[C@H](CSCC[C@H](N)C(=O)O)[C@@H](O)[C@H]1O", "note": "[S-adenosylhomocysteine]", "values": [
      {"measurement": "X-ray crystal structure of binary complex, 2.6 A", "setting": "[2]", "value": "the binary Ss-SibL/SAH and the ternary Ss-SibL/SAH/3HK complex crystals diffracted to higher resolution"}
    ]},
    {"molecule": "Streptosporangium sibiricum SibL (enzyme, SibL, SAM-dependent 3-hydroxykynurenine C-methyltransferase of Streptosporangium sibiricum; amplified by PCR from S. sibiricum genomic DNA and cloned into pET-21b; Homodimer in the crystals; The ternary complex was first phased with selenomethionine-substituted protein; also called Ss-SibL; 3-hydroxykynurenine C-methyltransferase; source: E. coli BL21 (DE3), purified (Ni-NTA, Superdex-200 size …)) MSSELSALVPVLFGHAAFQQLNAGCQLGLFELLHERGPLSAEEVADALRLPRRSADILLLGTTALGLSTVTDGGYRNGAPIGAAFRDGLWPVLRDIVQYQDKIAYQPAADYVESLRTGQNAGIRHFPGTTRDLYSRLAAVPGLEELFYRGMHAWSQLSNPVLLAQPDFTRVHRVLDVGGGDAVNAVALARAHPSLRVTVLDRPGALEVARKTIAEAGLEERVRTHAADIFTDSYPAGHDCVLFAHQLVIWSPEQNLTLLRKAYDAVEPGGRVLVFNAFTDDDRTGPLYAALDNVYFTTLPFRHSTIHRWADCESWLREAGFTDVGRTAPPGWTPHGVVSGSRPR", "values": [
      {"measurement": "stoichiometry N", "setting": "[3]", "value": 2}
    ]}
  ]
}
